Data reported in patent US6939887B2, “Benzimidazolidinone derivatives” (Sumitomo Pharmaceuticals Co., Ltd., priority 2001, dated 2005).
Where a name gives a salt, the structure may show the parent alone.

What follows are compounds tested on pituitary cells (growth hormone release) (assay: GH release promoting activity in cultured rat pituitary cells (GH level of supernatant by RIA)). Conditions: compound concentration 10000 nM, 15 min at 37° C.
Format: cell-based, rat (Wistar/ST)
Procedure: Benzimidazolidinone derivatives of the present invention were evaluated for their growth hormone (GH) release promoting activity by reference to the method described in a literature (R. G. Smith et al., Science, 260, 1640 (1993)).
Pituitary glands removed from 7-week-old male Wistar/ST rats were washed three times with HBSS(−) and the tissue was minced into small pieces (ca. 1 mm square) using a pair of scissors. The tissues were transferred to a 15 ml round-bottom centrifuge tube and washed three times with HBSS(−) (10 ml). An enzyme solution (0.1 ml per one pituitary gland) was added and enzymatic digestion was started in a water bath at 37° C. During the process, the mixture was pipetted every 5 minutes and the treatment was continued for ca 20-30 min until the cells were dispersed. The resulting cell suspension was centrifuged at 1200 rpm for 2-3 min at room temperature and the supernatant was discarded. A culture medium (8 ml) was added. Similar procedure was repeated twice and the dispersed cells were washed. The cells were plated in a 96-well plate (1×10^4 cells/100 μl/well) and incubation was started at 37° C. under 5% CO2 atmosphere.
Three days after the start of the culture, the supernatant was discarded and an assay medium was added. The cells were incubated for 1.5 h and washed once with the assay medium. A test compound solution was added and the cells were reacted at 37° C. for 15 min in an incubator under 5% CO2. The supernatant was recovered and the GH level thereof was measured by RIA.
A sample (50 μl) diluted with RIA buffer (1% BSA, 0.1% NaN3 and 25 mM EDTA/PBS (pH 7.6)), [^125I]-labeled GH solution (50 μl, ca. 10,000 cpm), and rabbit antiserum (diluted 1,000-fold) against rat GH (50 μl, Biogenesis Co) were placed in each well of a 96-well plate for RIA (Coster Co) and the mixture was reacted for 3 days at 4° C. Cell membrane fractions containing protein A were added and the mixture was allowed to stand for 20 min and centrifuged. The supernatant was recovered and the precipitates were washed with the RIA buffer. The ^125I amount was measured. The GH level of the sample was calculated from the standard curve drawn using the standard GH.
The composition of the culture medium was DMEM containing 10% horse serum, 2.5% fetal bovine serum, 1% nonessential amino acids, 1% antibiotics. The composition of the assay medium was 25 mM HEPES/culture medium (pH 7.3). The test compound solution was prepared by adding a compound solution (1 μl), adjusted to 1000-fold concentration with DMSO, to an assay medium (1 ml). Collagenase (400 mg), DNase type I (1 mg), and BSA (1 g) were dissolved in a 25 mM HEPES buffer (pH 7.4, 40 ml) containing 0.8% NaCl, 0.037% KCl, 0.9% glucose, 1% streptomycin-penicillin and 0.7 mM Na2HPO4, and 1 mg/ml CaCl2 (226 μl) was added. The resulting solution was adjusted to a final volume of 50 ml by adding a HEPES buffer and sterilized by filtration through a 0.22 μm filter and used as the enzyme solution.
The GH release promoting activity of the compounds of Examples is shown in the following. For the activity, the ratio of GH level of the supernatant in the presence of the test compound (compound concentration 10000 nM) to GH level of supernatant in the absence of the compound (GH level of supernatant in the presence of the compound/GH level of supernatant in the absence of the compound).

**Q.** With `CCN(CC)CCn1c(=O)n(Cc2cccc(Cl)c2)c2c(C(F)(F)F)cc(C(N)=O)cc21` [Example 3, 1-(3-chlorobenzyl)-3-[2-(diethylamino)ethyl]-2-oxo-7-(trifluoromethyl)-2,3-dihydro-1H-benzimidazole-5-carboxamide trifluoroacetate] as the compound, how does the “GH release promoting activity = (GH level of supernatant in the presence of the compound)/(GH level of supernatant in the absence of the compound)” value (from here on “GH release promoting activity =”) read?
**A.** The value was 1.2.

**Q.** Which “GH release promoting activity =” value does the source give for `CCN(CC)CCn1c(=O)n(Cc2ccccc2Cl)c2c(C(F)(F)F)cc(C(N)=O)cc21` [Example 5, 1-(2-chlorobenzyl)-3-[2-(diethylamino)ethyl]-2-oxo-7-(trifluoromethyl)-2,3-dihydro-1H-benzimidazole-5-carboxamide trifluoroacetate] here?
**A.** Its value is 1.3.

**Q.** With `CCN(CC)CCn1c(=O)n(-c2ccc(Cl)cc2)c2c(C(F)(F)F)cc(C(N)=O)cc21` [Example 7, 1-(4-chlorophenyl)-3-[2-(diethylamino)ethyl]-2-oxo-7-(trifluoromethyl)-2,3-dihydro-1H-benzimidazole-5-carboxamide trifluoroacetate] as the compound, how does the “GH release promoting activity =” value read?
**A.** Its value is 3.0.

**Q.** `CCN(CC)CCn1c(=O)n(-c2ccc(Cl)cc2Cl)c2c(C(F)(F)F)cc(C(N)=O)cc21` [Example 8, 1-(2,4-dichlorophenyl)-3-[2-(diethylamino)ethyl]-2-oxo-7-(trifluoromethyl)-2,3-dihydro-1H-benzimidazole-5-carboxamide trifluoroacetate] was tested. Which “GH release promoting activity =” value did it give?
**A.** The value was 2.1.

**Q.** Which “GH release promoting activity =” value does the source give for `CCN(CC)CCn1c(=O)n(Cc2cccc(C(F)(F)F)c2)c2c(C(F)(F)F)cc(C(N)=O)cc21` [Example 9, 3-[2-(diethylamino)ethyl]-2-oxo-7-(trifluoromethyl)-1-[3-(trifluoromethyl)benzyl]-2,3-dihydro-1H-benzimidazole-5-carboxamide trifluoroacetate] here?
**A.** Its value is 1.3.

**Q.** Which “GH release promoting activity =” value does the source give for `CCN(CC)CCn1c(=O)n(Cc2ccccc2C)c2c(C(F)(F)F)cc(C(N)=O)cc21` [Example 16, 3-[2-(diethylamino)ethyl]-1-(2-methylbenzyl)-2-oxo-7-(trifluoromethyl)-2,3-dihydro-1H-benzimidazole-5-carboxamide trifluoroacetate] here?
**A.** Its value is 1.0.
